Values quoted from earlier work as cited in patent US7741337B2, “Azonafide derivatives, methods for their production and pharmaceutical compositions therefrom” (Unibioscreen S.A., priority 2005, dated 2010).

How the values were obtained:
leukemia models = conditions: mice; cited from earlier work
[1] = test system: human tumour xenografts with colon, lung and mammary cancers; conditions: mice with colon; cited from earlier work
[2] = test system: primary human solid tumours; conditions: in vitro; Ajani et al. Invest New Drugs (1988) 6:79-83; cited from earlier work
[3] = patients receiving five daily doses of the drug; cited from earlier work

CN(C)CCN1C(=O)c2cccc3cc(N)cc(c23)C1=O [amonafide]
activity in leukemia models (leukemia models): only moderate activity | activity in human tumour xenografts [1]: no activity | activity in primary human solid tumours [2]: poor activity | myelotoxicity [3]: substantial myelotoxicity leading to some deaths
